According to US20110104301A1, “METHODS OF REDUCING PAIN AND INFLAMMATION” (Georgetown University, A Congressionally Chartered …, priority 2008, published 2011):

Tests used:
[1] = molecular target: T1, mutant S502A/S800A TRPV1 (Rattus norvegicus, UniProt O35433, S502A/S800A); test: Heat activation in oocytes expressing mutant S502A/S800A TRPV1; format: cell-based
T1 construct: expressed in transfected cells; host or cells: Xenopus laevis oocytes (cRNA injection)
Experimental: Oocyte electrophysiology. […] Oocytes were placed in a Perspex chamber and continuously superfused (5 ml min-1) with Ca2+-free solution containing (in mM): 100 NaCl, 2.5 KCl, 5 HEPES, 1 MgCl2 and titrated to pH 7.3 with 5 mM NaOH. For solutions <pH 6.0, HEPES was replaced with either 5 mM MES or 5 mM sodium citrate. Oocytes were routinely voltage-clamped at -60 mV at 22-23° C.

[2] = molecular target: TRPV1 (Rattus norvegicus, UniProt O35433); test: Whole-cell patch-clamp of TRPV1-expressing HEK293 cells; format: cell-based; parameters: expressed in transfected cells; host or cells: HEK 293F (Invitrogen), co-transfected with GFP cDNA
Experimental: Electrophysiology. […] Whole-cell and single-channel patch-clamp recordings were performed by using an EPC8 amplifier (HEKA Electronics). For whole-cell and excised patch recordings the bath solution contained 140 mMNaCl, 4 mMKCl, 1 mMMgCl2, 1.2 mMCaCl2, 10 mMHepes, 10 mM glucose, pH 7.3. For cell-attached experiments, NaCl was replaced with KCl in the bath solution. […] For neuronal recording NaCl was replaced with K-gluconate (plus 1 mMATP, 0.2 mM GTP). Solutions were applied via a gravity-fed system. […] Voltage-dependent properties were measured as described in Matt and Ahern, J. Physiol. […] The baseline currents under control conditions were subtracted. For cell-attached experiments, peak amplitudes were measured from all-points histograms, and open probability was measured as NPo>750 ms. Defolliculated Xenopus laevis oocytes were injected with ≈10 ng of hTRPA1 (gift of Ardem Patapoutian, The Scripps Research Institute, La Jolla, Calif.).
HEK cell and sensory neuron electrophysiology. […] Cell cultures were maintained at 37° C. with 5% CO2. Cells were transfected with rat TRPV 1 (gift of David Julius), and GFP cDNA using Lipofectamine™ Transfection Reagent (Invitrogen) and used 24-48 h after transfection. Nodose ganglia were obtained from adult mice (C57B16/J and TRPV1-null), cut, digested with collagenase, and cultured in Neurobasal +2% B-27 medium (Invitrogen), 0.1% L-glutamine and 1% penicillin/streptomycin on poly-D lysine-coated glass coverslips at 37° C. in 5% CO2. Neurons were used within 24-36 hr of culture. Whole-cell and single-channel patch clamp recordings were performed using an EPC8 amplifier (HEKA). The current signal was low-pass filtered at 1-3 kHz and sampled at 4 kHz. Currents were further filtered for display purposes. For whole-cell and excised patch recordings the bath solution contained (in mM): 140 NaCl, 4 KCl, 1 MgCl2, 1 EGTA, 10 HEPES, 10 glucose pH 7.3 (290 mOsm). The pipette solution contained (in mM): 140 CsC1, 10 NaCl, 10 HEPES, 5 EGTA, 2 Mg ATP and 0.03 GTP, pH 7.3. The peak amplitudes measured either during the prepulse or the tail current (within 1 ms) were plotted as a function of the test potential and normalized to the maximal current obtained from the following Boltzmann function: […]

TRPV1, sequence (O35433 whole entry): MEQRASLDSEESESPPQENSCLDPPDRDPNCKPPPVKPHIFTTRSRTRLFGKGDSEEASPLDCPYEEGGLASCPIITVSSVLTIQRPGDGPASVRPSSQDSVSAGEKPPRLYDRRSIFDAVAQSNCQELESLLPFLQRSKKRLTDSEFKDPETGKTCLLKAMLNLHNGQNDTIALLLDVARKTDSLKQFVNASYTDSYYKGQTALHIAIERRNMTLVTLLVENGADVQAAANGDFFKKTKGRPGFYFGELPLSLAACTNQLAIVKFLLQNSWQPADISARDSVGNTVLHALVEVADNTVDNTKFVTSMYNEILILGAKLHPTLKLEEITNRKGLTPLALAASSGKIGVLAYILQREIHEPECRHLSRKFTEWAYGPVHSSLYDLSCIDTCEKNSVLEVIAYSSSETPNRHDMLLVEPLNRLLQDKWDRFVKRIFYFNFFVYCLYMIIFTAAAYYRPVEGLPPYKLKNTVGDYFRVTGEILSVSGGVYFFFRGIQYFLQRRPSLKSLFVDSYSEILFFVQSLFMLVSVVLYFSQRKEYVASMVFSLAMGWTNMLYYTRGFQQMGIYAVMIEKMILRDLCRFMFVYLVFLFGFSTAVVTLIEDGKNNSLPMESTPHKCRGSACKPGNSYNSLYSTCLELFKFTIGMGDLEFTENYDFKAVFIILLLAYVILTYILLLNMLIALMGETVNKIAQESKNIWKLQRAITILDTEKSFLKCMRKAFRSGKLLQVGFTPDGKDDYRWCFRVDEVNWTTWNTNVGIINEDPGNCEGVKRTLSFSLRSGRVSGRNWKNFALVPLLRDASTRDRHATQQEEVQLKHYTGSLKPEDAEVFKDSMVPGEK
T1 sequence (O35433 whole entry S502A/S800A): as the sequence (O35433 whole entry) above, with S502A, S800A counted along it

FC(F)OC(Cl)C(F)(F)F (stereo not drawn) [isoflurane]
Temperature threshold, mutant S502A/S800A TRPV1 ([1]; PDBu+isoflurane, n=3): 37.3±0.7 °C | Temperature threshold, mutant S502A/S800A TRPV1 ([1]; isoflurane, n=5): 39.4±1.9 °C | Activation of TRPV1 currents ([2]; 0.9 mM (2.9 MAC)): failed to activate | Currents evoked after PDBu treatment in TRPV1-expressing HEK293 cells ([2]; VGA 0.9 mM, PDBu 500 nM, room temperature (25° C.)): activates currents | Effect on TRPV1 when applied together with saturating octanol ([2]; isoflurane 0.9 mM + octanol 1.8 mM): negligible effects | Enhancement of maximal voltage-evoked TRPV1 current ([2]; isoflurane 0.9 mM, n=5): 15±6% | Reduction of TRPV1 V1/2 ([2]; isoflurane 0.9 mM, n=5): 23.0±6.2 mV | Effects at TRPV1 at holding potential −50 mV ([2]; isoflurane 0.9 mM, octanol 1 mM): negligible effects | V1/2 of TRPV1 voltage activation with isoflurane (Boltzmann fit) ([2]; isoflurane 0.9 mM, control 161.5±2.7 mV): 129.0±3.6 mV
